Measurements taken from patent US20220412958A1, “METHOD FOR EVALUATING SAFETY OF SUBSTANCE IN VITRO USING HUMAN IMMORTALIZED MYELOID CELLS” (MiCAN Technologies Inc., priority 2019, published 2022).

Legend:
iPS-ML2 [1] = assay: Evaluation test of skin sensitizing property and/or pyrogenic property: IL-6/IL-8 production by immortalized monocytes (ELISA); format: cell-based, human; settings: iPS-ML2, 6 hr after addition, culture supernatant ELISA; negative control = medium alone; test substance up to 200 μg/mL
Excerpt: (§1) 1. […] 2. […] This operation was repeated once more. 3. […] 4. […] 5. […] 6. […] 7. […] 8. […] 9. […] 10.

mouse = settings: in vivo; cited from earlier work
iPS-ML2 [2] = assay: Detection test of skin sensitizer and/or pyrogen: IL-6/IL-8 production by immortalized monocytes (ELISA); format: cell-based, human; settings: iPS-ML2, both 6 hr and 24 hr after culturing; negative control = culture medium alone
Excerpt: as §1

CC(O)C(=O)O (centres unmarked) [N7, Lactic acid]
production of IL-6 compared with the negative control (iPS-ML2 [1]): did not show production | production of IL-8 compared with the negative control (iPS-ML2 [1]): did not show production

Nc1ccc(N)cc1 [P2, 4-Phenylenediamine]
skin sensitizing property in LLNA (mouse): have skin sensitizing property

Staphylococcus aureus Cowan 1 [SAC]
production amount of IL-6 in the culture supernatant with respect to the negative control (iPS-ML2 [2]): increased as the dilution rate became smaller | production amount of IL-8 in the culture supernatant with respect to the negative control (iPS-ML2 [2]): increased as the dilution rate became smaller
